pEC50: −log10 of the molar value.
Test system: mutant strains of HIV-1
Test: microbe, parasite or virus in culture
Type: cell-based
Details: for EC50 / Slope / pEC50: human PBM cells; for pEC50: Human immunodeficiency virus 1, PBMC
Description: Cells and viruses. […] Antimicrobial Agents Chemother 1992;36(11): 2423-2431.
Cell pellets were washed, centrifuged, lysed and the proviral DNA extracted as previously described. Cytotoxicity of the compounds was determined using the Promega Cell Titer 96 dye uptake assay (Madison, Wis.) in 1-2 day PHA-stimulated PBM cells after 5 days in culture. The median effective concentration (EC50) and inhibitory concentration (IC50) were derived from the computer-generated median effect plot of the dose-effect data, as described previously. […]
The mutant viruses tested are as follows: xxBRU Pitt (wild type HIV-1; the backbone used to prepare the other site directed mutagens); M184V (methionine to valine change at codon 184); K65R (lysine to arginine change at codon 65); T215Y (threonine to tyrosine change at codon 215); M184V/T215Y (virus with both mutations); 215/41 (virus with two mutations (threonine to tyrosine change at codon 215) and M4 1L (methionine to leucine change at codon 41)); 4X AZT (virus with four mutations associated with AZT therapy); D67N (aspartic acid to asparagine change at codon 67); K70R lysine to arginine change at codon 70); T215Y (defined as above); K219Q (lysine to glutamine change at codon 219); 964 pre (virus from a patient before they were on AZT therapy, and thus AZT sensitive); and 964 post (virus taken from the same patient after they were on AZT therapy, and thus is AZT resistant).

In the case of [N-]=[N+]=N[C@H]1C[C@H](n2ccc(=O)[nH]c2=O)O[C@@H]1CO [CS-87, 3′-Azido-2′,3′-dideoxyuridine], the “FI^50 (fold increase EC50)” value was 87, the EC50 (4X AZT Pitt.) was 17.0 µM and the Slope (4X AZT Pitt.) was 0.54. The EC50 (215/4I Pitt.) was 19.1 µM, the Slope (215/4I Pitt.) was 0.95 and the “GFI^90 (fold increase EC90)” value (AZT-Post (964 post)) was 14. For the same compound, the EC50 (AZT-Post (964 post)) was 63 µM, the Slope (AZT-Post (964 post)) was 1.64 and the EC50 (AZT-Sen. (964 pre)) was 11.1 µM. The Slope (AZT-Sen. (964 pre)) was 0.65 ± 0.08, the “sensitivity of AZT-exposed virus” value (AZT-exposed virus) was “deceased sensitivity” and the EC50 (HIV-1/LAI) was 4.7 µM. For the same compound, the Slope (HIV-1/LAI) was 0.70, the pEC50 (4X AZT Pitt.) was 6.52 and the pEC50 (215/4I Pitt.) was 5.68. For the same compound, the pEC50 (AZT-Post (964 post)) was 4.78, the pEC50 (AZT-Sen. (964 pre)) was 6.40 and the pEC50 (HIV-1/LAI) was 6.70. It also gave a pEC50 (K65R Pitt.) of 5.96, a pEC50 (L74V Pitt.) of 6.22 and a pEC50 (M184V Pitt.) of 6.22. The pEC50 (M184V/T215Y Pitt.) was 5.96, the pEC50 (T215Y Pitt.) was 6.52 and the pEC50 (xxBRU Pitt. (wild type)) was 5.96. It also gave an EC50 (K65R Pitt.) of 12 µM, a Slope (K65R Pitt.) of 0.92 ± 0.07 and an EC50 (L74V Pitt.) of 3.8 µM. It also gave a Slope (L74V Pitt.) of 1.18 ± 0.10, an EC50 (M184V Pitt.) of 2.4 µM and a Slope (M184V Pitt.) of 1.55. It also gave an EC50 (M184V/T215Y Pitt.) of 5.9 µM, a Slope (M184V/T215Y Pitt.) of 1.40 and an EC50 (T215Y Pitt.) of 2.7 µM. For the same compound, the Slope (T215Y Pitt.) was 1.00 ± 0.11, the “sensitivity of site directed mutant viruses” value (mutations at other than the 70 codon in the RT region) was “remain sensitive” and the EC50 (xxBRU Pitt. (wild type)) was 7.3 µM. For the same compound, the Slope (xxBRU Pitt. (wild type)) was 1.16.

Reference: patent US6602664B2 (priority 1998, dated 2003)
